According to patent US5298495A, “Partricin derivatives” (SPA Societa' Prodotti Antibiotici SpA, priority 1990, dated 1994):

How the values were obtained:
[1] = Solubility and reaction in water; assay type: physicochemical
[2] = cited from earlier work
[3] = test system: C. albicans 73; assay: Microbiological activity on C. albicans (MIC); assay type: cell-based; conditions: Fluid Sab. Med, 36° C.
Excerpt: (§1) MIC (ng/ml) Hemolytic con.(mcg/ml)
(§2) C. albicans 73 rat erytrocytes, […]

[4] = test system: rat erytrocytes; assay: Hemolytic activity on rat erythrocytes; assay type: cell-based; conditions: rat erytrocytes, 4 h at 37° C.
Excerpt: as §1, §2

[5] = test system: mice; assay: Acute toxicity in mice (DL50); assay type: in vivo; conditions: i.p.

**Q.** What does the source list for CNc1ccc(C(=O)CC(O)CCC(C)C2OC(=O)CC(O)CC(=O)CC(O)CC(O)CC(O)CC(O)CC3(O)CC(O)C(C(=O)NCCN(C)C)C(CC(OC4OC(C)C(O)C(NC(=O)CN(C)C)C4O)C=CC=CC=CC=CC=CC=CC=CC2C)O3)cc1 (centres unmarked) [Example 5, N-DIMETHYLAMINOACETYL-PARTRICIN A 2-DIMETHYL-AMINOETHYLAMIDE DIASPARTATE]?
**A.** solubility in water [1]: soluble in water; pH of aqueous solution (almost neutral reaction) ([1]; in water): 6

**Q.** Which “solubility in water of mepartricin (words, background)” value [2] does the source give for mepartricin here?
**A.** water-insoluble

**Q.** Which “MIC C. albicans 73, 24 h” value ([3]; 24 h) does the source give for “partricin [Partr., H, OH, reference compound]” here?
**A.** 0.03 µg/mL

**Q.** What about the “MIC C. albicans 73, 48 h” value ([3]; 48 h) of the same molecule?
**A.** 0.06 µg/mL

**Q.** And the “Hemolytic con. min. (MHC)” value ([4]; minimum)?
**A.** < 0.2 µg/mL

**Q.** What about the “Hemolytic con. total (THC)” value ([4]; total) of the same molecule?
**A.** < 0.2 µg/mL

**Q.** And the DL50 mice i.p. [5]?
**A.** 0.63 mg/kg
